Consider 32 compounds from ChEMBL document CHEMBL5360540, “Antitumor effect of 3-(quinolin-2-ylmethylene)-4,6-dimethyl-5-hydroxy-7-azaoxindole down-regulating the Gas6-Axl axis” (Eur J Med Chem, 2023).

The inhibition is how much of the control response was suppressed. A word on the IC50: it is the concentration at which inhibition is half-maximal.

For series [1], the system named is PANC-1. Description: Cytotoxicity against human PANC-1 cells assessed as inhibition of cell growth at 30 uM incubated for 48 hrs by MTT assay relative to control. The series is classed as functional.
In series [2] the test system is MCF7. Briefly: Cytotoxicity against human MCF7 cells assessed as inhibition of cell growth at 30 uM incubated for 48 hrs by MTT assay relative to control. The series is classed as functional.
Series [3] is described as follows: Cytotoxicity against HEK293 cells assessed as inhibition of cell growth incubated for 48 hrs by MTT assay. In kind it is toxicity, cell-based. The following applies: human.
In series [4] the test system is MCF7. Briefly: Cytotoxicity against human MCF7 cells assessed as inhibition of cell growth incubated for 48 hrs by MTT assay. The series is classed as functional, cell-based. Particulars: MCF7, 48 h. On the technique in general: Tetrazolium dyes change colour on reduction, which living cells bring about.
The subject of a further series is DU-145. Briefly: Cytotoxicity against human DU-145 cells assessed as inhibition of cell growth incubated for 48 hrs by MTT assay. In kind it is functional, cell-based. Particulars: DU-145, 48 h.
The subject of another series is U-937. Briefly: Cytotoxicity against human U-937 cells assessed as inhibition of cell growth incubated for 48 hrs by MTT assay. The following applies: U-937, 48 h. The series is classed as functional, cell-based.
In the next series the test system is HT-29. Description: Cytotoxicity against human HT-29 cells assessed as inhibition of cell growth incubated for 48 hrs by MTT assay. In kind it is functional, cell-based. Particulars: HT-29, 48 h.
Series [5] relates to PANC-1. Description: Cytotoxicity against human PANC-1 cells assessed as inhibition of cell growth incubated for 48 hrs by MTT assay. In kind it is functional, cell-based. Particulars: PANC-1, 48 h.
A further series relates to MDA-MB-231. Briefly: Cytotoxicity against human MDA-MB-231 cells assessed as inhibition of cell growth incubated for 48 hrs by MTT assay. The series is classed as functional, cell-based. Particulars: MDA-MB-231, 48 h.
The subject of the next series is A549. Description: Cytotoxicity against human A549 cells assessed as inhibition of cell growth incubated for 48 hrs by MTT assay. In kind it is functional, cell-based. The following applies: A549, 48 h.
The nature of series [6]: Cytotoxicity against CHO-K1 cells assessed as inhibition of cell growth incubated for 48 hrs by MTT assay. The series is classed as toxicity, cell-based, Cricetulus griseus. Particulars: Chinese hamster.

As to `Cc1ccsc1/C=C1\C(=O)Nc2nc(C)c(O)c(C)c21`, the results for the inhibition at 30 µM in the series with PANC-1 [1] and with MCF7 [2] were 47.3% and 59%, respectively.
`Cc1nc2c(c(C)c1O)/C(=C/c1ccc3ccccc3c1)C(=O)N2`: the figures for the inhibition at 30 µM with PANC-1 [1] and in the series with MCF7 [2] were 29% and 30.5%, respectively.
For the compound `CCCCC/C=C1\C(=O)Nc2nc(C)c(O)c(C)c21`, the IC50 at 48 h was 6.1 µM in series [3] and 20.9 µM in series [6]. For the same compound, the IC50 was found to be 13.9 µM with MCF7 [4]; 11 µM with DU-145; 11.5 µM in the series on U-937; 12.9 µM in the series on HT-29; 8.1 µM in the series on PANC-1 [5]; 12.6 µM in the series with MDA-MB-231. Also, the IC50 in the series on A549 was determined as 7.6 µM. For the same compound, the inhibition at 30 µM amounted to 77.5% with PANC-1 [1] and 76.9% in the series on MCF7 [2].
For the compound `Cc1nc2c(c(C)c1O)/C(=C/c1ccc([N+](=O)[O-])cc1)C(=O)N2`, the inhibition at 30 µM in the series with PANC-1 [1] stood at 32.6%; in the series on MCF7 [2] it was 16.3%.
The corresponding values for `COc1ccccc1/C=C1\C(=O)Nc2nc(C)c(O)c(C)c21` are 10.2% and 30.7%.
For `Cc1nc2c(c(C)c1O)/C(=C/c1ccco1)C(=O)N2`, in that order: 16.4% and 31.5%.
As for `COc1cc(/C=C/C=C2\C(=O)Nc3nc(C)c(O)c(C)c32)ccc1O`, the inhibition at 30 µM in the series on PANC-1 [1] came to 24.5%; in the series on MCF7 [2], 6.9%.
For `Cc1nc2c(c(C)c1O)/C(=C/c1ccccc1[N+](=O)[O-])C(=O)N2`, the inhibition at 30 µM in the series with PANC-1 [1] is 27.9%; in the series on MCF7 [2], 23.9%.
Take `COc1ccc(Br)cc1/C=C1\C(=O)Nc2nc(C)c(O)c(C)c21`: the values for the IC50 at 48 h in series [3] and in [6] were 19.5 µM and 30.1 µM, respectively. Besides, the concentration for half-maximal inhibition (IC50) was found to be 11 µM with MCF7 [4]; 4.6 µM in the series on DU-145; 12.6 µM in the series with U-937; 25.1 µM in the series with HT-29; 6.4 µM in the series on PANC-1 [5]; 10.5 µM with MDA-MB-231. In addition, the IC50 in the series on A549 worked out at 10.1 µM. For the same compound, the inhibition at 30 µM in the series with PANC-1 [1] came out at 71.8%; in the series with MCF7 [2], 74.7%.
Consider `Cc1ccc(/C=C2\C(=O)Nc3nc(C)c(O)c(C)c32)cc1`, for which the figures for the inhibition at 30 µM in the series with PANC-1 [1] and in the series on MCF7 [2] were 29.2% and 32.3%, respectively.
For `Cc1nc2c(c(C)c1O)/C(=C/c1ccc(F)cc1)C(=O)N2`, the values for the inhibition at 30 µM with PANC-1 [1] and in the series with MCF7 [2] were 51.9% and 48.3%, respectively.
In the case of `COc1ccc(/C=C2\C(=O)Nc3nc(C)c(O)c(C)c32)cc1`, the inhibition at 30 µM with PANC-1 [1] worked out at 36.4%; with MCF7 [2], 23.9%.
The corresponding values for `Cc1nc2c(c(C)c1O)/C(=C/c1ncc[nH]1)C(=O)N2` are 7.2% and 2.6%.
Consider `CCC(/C=C1\C(=O)Nc2nc(C)c(O)c(C)c21)CC`, for which the figures for the inhibition at 30 µM with PANC-1 [1] and with MCF7 [2] were 45% and 30.5%, respectively.
For `Cc1nc2c(c(C)c1O)/C(=C/c1cnc[nH]1)C(=O)N2`, in that order: 4.5% and 4.1%.
For `Cc1nc2c(c(C)c1O)/C(=C/c1cccs1)C(=O)N2`, in that order: 42.3% and 57.8%.
For `Cc1ccc(/C=C2\C(=O)Nc3nc(C)c(O)c(C)c32)s1`, in that order: 30.2% and 53.4%.
As for `Cc1nc2c(c(C)c1O)/C(=C/c1cccc3[nH]ccc13)C(=O)N2`, the inhibition at 30 µM in the series on PANC-1 [1] came to 32.3%; in the series with MCF7 [2], 14.5%.
For `Cc1nc2c(c(C)c1O)/C(=C/c1ccccc1O)C(=O)N2`, in that order: 42.1% and 29.2%.
The corresponding values for `Cc1cc(C)c(/C=C2\C(=O)Nc3nc(C)c(O)c(C)c32)[nH]1` are 44.8% and 47.3%.
The corresponding values for `Cc1nc2c(c(C)c1O)/C(=C/c1c[nH]c3ccccc13)C(=O)N2` are 17.1% and 2.4%.
Turning to `COc1cc(/C=C2\C(=O)Nc3nc(C)c(O)c(C)c32)cc(OC)c1OC`, the inhibition at 30 µM in the series on PANC-1 [1] was 40.7%; in the series with MCF7 [2], 41.2%.
For `Cc1nc2c(c(C)c1O)/C(=C/c1ccc(Cl)cc1)C(=O)N2`, in that order: 45% and 51.7%.
Regarding `Cc1nc2c(c(C)c1O)/C(=C/C1CCCCC1)C(=O)N2`, the inhibition at 30 µM in the series on PANC-1 [1] came to 49.1%; in the series with MCF7 [2], 10%.
Take `COc1ccc(OC)c(/C=C2\C(=O)Nc3nc(C)c(O)c(C)c32)c1`: the results for the IC50 at 48 h in [3] and in [6] were 11 µM and 47.5 µM, respectively. Further, the IC50 came out at 20.9 µM with MCF7 [4]; 5.6 µM in the series with DU-145; 33 µM in the series with U-937; 16.6 µM in the series on HT-29; 19.5 µM in the series with PANC-1 [5]; 22.9 µM in the series on MDA-MB-231. Besides, the IC50 in the series on A549 came out at 47.5 µM. Moreover, the values for the inhibition at 30 µM with PANC-1 [1] and in the series on MCF7 [2] were 69.3% and 67.5%, respectively.
On to `Cc1nc2c(c(C)c1O)/C(=C/C(c1ccccc1)c1ccccc1)C(=O)N2`, for which the values for the half-inhibitory concentration (IC50) at 48 h in series [3] and in series [6] were 37.8 µM and 30.1 µM, respectively. Also, the IC50 is 6.4 µM in the series with MCF7 [4]; 8.8 µM in the series on DU-145; 16.6 µM in the series with U-937; 11.5 µM in the series on HT-29; 7.4 µM in the series on PANC-1 [5]; 22.9 µM with MDA-MB-231. Further, the half-inhibitory concentration (IC50) in the series with A549 came out at 31.5 µM. Besides, the inhibition at 30 µM in the series on PANC-1 [1] was 81.5%; with MCF7 [2] it was 78.1%.
As for `Cc1nc2c(c(C)c1O)/C(=C/c1nccs1)C(=O)N2`, the values for the inhibition at 30 µM with PANC-1 [1] and with MCF7 [2] were 9% and 5.6%, respectively.
`Cc1nc2c(c(C)c1O)/C(=C/c1ccc[nH]1)C(=O)N2`: the inhibition at 30 µM in the series on PANC-1 [1] amounted to 16.9%; with MCF7 [2] it was 27%.
Consider `Cc1nc2c(c(C)c1O)/C(=C/c1ccccn1)C(=O)N2`, for which the inhibition at 30 µM was found to be 29.3% in the series on PANC-1 [1] and 28.1% in the series with MCF7 [2].
As for `Cc1nc2c(c(C)c1O)/C(=C/c1ccoc1)C(=O)N2`, the 50% inhibitory concentration (IC50) at 48 h in series [3] and in series [6] was > 90 µM throughout. For the same compound, the IC50 with MCF7 [4] was 22.9 µM; with DU-145, 22.9 µM; in the series with U-937, 31.5 µM; in the series with HT-29 it was > 90 µM; in the series on PANC-1 [5], > 100 µM; in the series with MDA-MB-231, > 90 µM. Further, the IC50 in the series with A549 is > 90 µM. For the same compound, the inhibition at 30 µM in the series with PANC-1 [1] was found to be 26.2%; in the series on MCF7 [2], 66.3%.
As to `Cc1nc2c(c(C)c1O)/C(=C/c1ccncc1)C(=O)N2`, the IC50 at 48 h is > 90 µM in series [3] and 57 µM in series [6]. The IC50 in the series with MCF7 [4] was 19.1 µM; in the series with DU-145, 30.8 µM; with U-937, 34.5 µM; in the series on HT-29, 30.1 µM; in the series on PANC-1 [5] it was 19.1 µM; in the series on MDA-MB-231, > 90 µM. Besides, in the series with A549, the IC50 was 30.1 µM. Further, the inhibition at 30 µM turned out to be 65.5% with PANC-1 [1] and 63.2% with MCF7 [2].
For `COc1cccc(/C=C2\C(=O)Nc3nc(C)c(O)c(C)c32)c1`, the inhibition at 30 µM in the series on PANC-1 [1] turned out to be 46.5%; in the series with MCF7 [2] it was 29.6%.
